US10604514B2, “6-(5-membered heteroaryl)isoquinolin-3-yl carboxamides and preparation and use thereof” (Samumed, LLC, priority 2017, dated 2020)
Like-named read-outs stand apart in the source and are kept apart here.

Key:
[1] = tested on: Tau phosphorylation at Ser396 (pSer396), SH-SY5Y cells; assay: Tau phosphorylation at Ser396 (pSer396) in SH-SY5Y cells, ELISA/western blot; format: cell-based, human; conditions: Homo sapiens; SH-SY5Y cells, overnight (16-18 h); read-out: pSer396 Tau EC50;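 further: cell lysates probed for reduced Tau pSer396 via ELISA (colorimetric) or western blot (chemiluminescence), both with one shared pSer396 antibody, EC50 for lowering phosphorylation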
IL-6 = IL-6 inhibition in LPS-stimulated human peripheral blood mononuclear cells (HTRF); format: cell-based; conditions: Homo sapiens, PBMC; for EC50: IL-6, LPS-stimulated huPBMCs, HTRF; for inhibition at 10 µM: read-out: percent value in parentheses below EC50 >10
Protocol: Fresh Normal PB MNC (Catalog # PB001, AllCells, Alameda, Calif.) were shipped overnight at 4° C. and resuspended in Roswell Park Memorial Institute (RPMI) 1640 Medium, with GlutaMAX Supplement (Catalog #61870127, ThermoFisher Scientific, Waltham, Mass.) supplemented with 1% Penicillin-Streptomycin (Catalog #151401633 ThermoFisher Scientific, Waltham, Mass.) and 1% fetal bovine serum (FBS) (Catalog #16140089, ThermoFisher Scientific, Waltham, Mass.) assay media.
Fresh normal human peripheral blood mononuclear cells (huPBMCs) were resuspended in 1% FBS-RPMI assay media with 1% Penicillin-Streptomycin 1% to a cell concentration of 1×10e6 cells/mL. Each compound was dissolved in DMSO (Catalog # D8418-100 ml, Sigma-Aldrich, St. Louis, Mo.) as a 10 mM stock and used to prepare compound source plates. Serial dilution (1:3, 10-point dose-response curves starting from 10 μM) and compound transfer was performed using the ECHO 550 (Labcyte, Sunnyvale, Calif.) into 384-well white Proxiplate-Plus assay plates (Catalog #6008289, PerkinElmer, Shelton, Conn.) with appropriate DMSO backfill for a final DMSO concentration of 0.25%. huPBMCs were plated at 5000 cells/well in the 384-well Proxiplate-Plus assay plates and incubated at 37° C.-5% CO2 for 2 hours. 50 ng/mL of Lipopolysaccharides from Escherichia coli 0111:B4 (Catalog # L5293-2 ML, Sigma-Aldrich, St. Louis, Mo.) was added after 2 hours and cells were incubated for another 22 hours at 37° C.-5% CO2. After 22 hour incubation, a mixture of anti-IL6 XL665 and anti-IL-6 Cryptate diluted in reconstitution buffer (Catalog #62IL6PEC, Cisbio Inc., Bedford, Mass.) was added to each well. Following incubation for 3 hours at room temperature, Homogeneous Time-Resolved Fluorescence (HTRF) was measured using the Envision (Perkin Elmer, Shelton, Conn.) at 665 nm and […]. The ratio of fluorescence at 665 nm to 620 nm was used as a readout for IL-6 quantification. All samples were processed in duplicate. Readings were normalized to DMSO treated cells and normalized activities were utilized for EC50 calculations. EC50 was determined using software generated by Dotmatics Limited (Windhill Bishops Stortford Herts, UK) using the Levenberg-Marquardt 4 parameter fitting procedure with finite different gradients.

GSK3β kinase = GSK3β kinase (Homo sapiens (Human), UniProt P49841); assay: GSK3β kinase assay (Ser/Thr 09 peptide Z-lyte, FRET); format: biochemical; conditions: method text calls the value IC50;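 further: Coumarin/fluorescein emission ratio converted to percent phosphorylation against unphosphorylated (0%) and phosphorylated (100%) controls, 1 h compound incubation at room temperature, 11-point threefold dilutions from 10 µM, run in duplicate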
GSK3β kinase, sequence (P49841 whole entry): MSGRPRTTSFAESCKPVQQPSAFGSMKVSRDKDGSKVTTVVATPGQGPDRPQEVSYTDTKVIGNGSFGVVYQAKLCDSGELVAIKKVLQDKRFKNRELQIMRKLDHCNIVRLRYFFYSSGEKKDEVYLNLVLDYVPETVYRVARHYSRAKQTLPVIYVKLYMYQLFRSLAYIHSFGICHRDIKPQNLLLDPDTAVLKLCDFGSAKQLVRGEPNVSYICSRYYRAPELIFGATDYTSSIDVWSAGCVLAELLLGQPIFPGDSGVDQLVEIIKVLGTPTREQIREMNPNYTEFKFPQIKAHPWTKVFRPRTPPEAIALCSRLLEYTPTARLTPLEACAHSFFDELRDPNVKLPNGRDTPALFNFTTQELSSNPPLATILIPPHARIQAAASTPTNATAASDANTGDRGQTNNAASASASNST
Protocol: Representative compounds were screened using the assay procedure for GSK30 kinase activity as described below.
Each compound is dissolved in DMSO as a 10 mM stock and used to prepare compound source plates. Serial dilution (1:3, 11-point dose-response curves from 10 M to 0.0003 μM) and compound transfer was performed using the ECHO 550 (Labcyte, Sunnyvale, Calif.) into 1536-well black-walled round bottom plates (Corning).
This is a non-radioactive assay using fluorescence resonance energy transfer (FRET) between coumarin and fluorescein to detect kinase activity which is represented as ratio of coumarin emission/fluorescein emission.
The mixture is allowed to incubate with the representative compounds for one hour at room temperature. All reactions were performed in duplicate. Unphosphorylated (“0% Control”) and phosphorylated (“100% control”) forms of Ser/Thr 18 serve as control reactions.
After incubation, diluted Development Buffer is added to the reaction and allowed to further incubate for one hour at room temperature.
The percent phosphorylation is then calculated using the following formula: [1−((Em ratio×F100%)−C100%)/((C0%−C100%)+(Em ratio×(F100%−F0%)))].
Dose-response curves are generated and inhibitory concentration (IC50) values are calculated using non-linear regression curve fit in the Dotmatics' Studies Software (Bishops Stortford, UK).

[2] = tested on: SW480 colon carcinoma cells; assay: Cell viability assay (CellTiter-Glo) in SW480 cells; format: cell-based, human; conditions: Homo sapiens; for EC50: 96 h, cell viability, SW480 cells, four days, CellTiter-Glo; for inhibition at 10 µM: SW480, read-out: percent inhibition at 10 μM;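 on all read-outs here: SW480 cells stably carrying an Sp5-luciferase TCF/LEF reporter, luminescent ATP signal as viability measure, DMSO-treated cells as control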
[3] = tested on: Wnt activity (Sp5-Luc reporter in SW480 colon carcinoma cells); assay: Wnt activity screening assay (Sp5-Luc reporter gene assay); format: cell-based, human; conditions: Homo sapiens; for EC50: Sp5-Luc reporter, SW480 cells, 36 to 48 hours
From the text: The screening assay for Wnt activity is described as follows. Reporter cell lines can be generated by stably transducing cancer cell lines (e.g., colon cancer) or primary cells (e.g., IEC-6 intestinal cells) with a lentiviral construct that includes a Wnt-responsive promoter driving expression of the firefly luciferase gene.
SW480 colon carcinoma cells were transduced with a lentiviral vector expressing luciferase with a human Sp5 promoter consisting of a sequence of eight TCF/LEF binding sites. SW480 cells stably expressing the Sp5-Luc reporter gene and a hygromycin resistance gene were selected by treatment with 150 μg/mL of hygromycin for 7 days. These stably transduced SW480 cells were expanded in cell culture and used for all further screening activities. Each compound was dissolved in DMSO as a 10 mM stock and used to prepare compound source plates. Serial dilution (1:3, 10-point dose-response curves starting from 10 μM) and compound transfer was performed using the ECHO 550 (Labcyte, Sunnyvale, Calif.) into 384-well white solid bottom assay plates (Greiner Bio-One) with appropriate DMSO backfill for a final DMSO concentration of 0.1%. For Sp5-Luc reporter gene assays, the cells were plated at 4,000 cells/well in 384-well plates with a DMEM medium containing 1% fetal bovine serum, and 1% Penicillin-Streptomycin and incubated for 36 to 48 hours at 37° C. and 5% CO2. Following incubation, 15 μl of BriteLite Plus luminescence reagent (Perkin Elmer) was added to each well of the 384-well assay plates. The plates were placed on an orbital shaker for 2 min and then luminescence was quantified using the Envision (Perkin Elmer) plate reader. Readings were normalized to DMSO only treated cells, and normalized activities were utilized for EC50 calculations using the dose-response log (inhibitor) vs. response -variable slope (four parameters) nonlinear regression feature available in GraphPad Prism 5.0 (or Dotmatics).

DYRK1A kinase = DYRK1A kinase (Homo sapiens (Human), UniProt Q13627); assay: DYRK1A kinase assay (Ser/Thr 18 peptide Z-lyte, FRET)
[4] = tested on: LL29 cells (primary human fibroblasts derived from IPF patients), α-smooth muscle actin; assay: Inhibition of fibrotic process: αSMA in TGF-β1-treated primary human fibroblasts from IPF patients (LL29 cells); format: cell-based; conditions: Homo sapiens, Fibroblast; for EC50: 96 h, % αSMA-positive LL29 cells, TGF-β1 20 ng/mL, 4 days; for inhibition at 10 µM: read-out: percent inhibition at 10 μM
From the text: Representative compounds were screened using primary human fibroblasts (derived from IPF patients) treated with TGF-β1 to determine their ability to inhibit the fibrotic process.
Primary human fibroblasts derived from IPF patients (LL29 cells) [^1Xiaoqiu Liu, et. al., “Fibrotic Lung Fibroblasts Show Blunted Inhibition by cAMP Due to Deficient cAMP Response Element-Binding Protein Phosphorylation”, Journal of Pharmacology and Experimental Therapeutics (2005), 315(2), 678-687; ^2Watts, K. L., et. al., “RhoA signaling modulates cyclin D1 expression in human lung fibroblasts; implications for idiopathic pulmonary fibrosis”, Respiratory Research (2006), 7(1), 88] were obtained from American Type Culture Collection (ATCC) and expanded in F12 medium supplemented with 15% Fetal Bovine Serum and 1% Penicillin/Streptomycin.
Each compound was dissolved in DMSO as a 10 mM stock and used to prepare compound source plates. Serial dilution (1:2, 11-point dose-response curves from […] to 0.94 nM) and compound transfer was performed using the ECHO 550 (Labcyte, Sunnyvale, Calif.) into 384-well clear bottom assay plates (Greiner Bio-One) with appropriate DMSO backfill for a final DMSO concentration of 0.1%. LL29 cells were plated at 1,500 cells/well in 70 μL/well F12 medium supplemented with 1% Fetal Bovine Serum. TGF-β1 (Peprotech; 20 ng/mL) was added to the plates to induce fibrosis (ref. 1 and 2 above). Wells treated with TGF-31 and containing DMSO were used as positive control, and cells with only DMSO were negative control. Cells were incubated at 37° C. and 5% CO2 for 4 days. Following incubation for 4 days, SYTOX green nucleic acid stain (Life Technologies [Thermo Fisher Scientific]) was added to the wells at a final concentration of 1 μM and incubated at room temperature for 30 min. Cells were then fixed using 4% formaldehyde (Electron Microscopy Sciences), washed 3 times with PBS followed by blocking and permeabilization using 3% Bovine Serum Albumin (BSA; Sigma) and 0.3% Triton X-100 (Sigma) in PBS. Cells were then stained with antibody specific to α-smooth muscle actin (αSMA; Abcam) (ref. 1 and 2 above) in 3% Bovine Serum Albumin (BSA; Sigma) and 0.3% Triton X-100 (Sigma) in PBS, and incubated overnight at 4° C. Cells were then washed 3 times with PBS, followed by incubation with Alexa Flor-647 conjugated secondary antibody (Life Technologies [Thermo Fisher Scientific]) and DAPI in 3% Bovine Serum Albumin (BSA; Sigma) and 0.3% Triton X-100 (Sigma) in PBS at room temperature for 1 hour. Cells were then washed 3 times with PBS and plates were sealed for imaging. αSMA staining was imaged by excitation at 630 nm and emission at 665 nm and quantified using the Compartmental Analysis program on the CellInsight CX5 (Thermo Scientific). Dead or apoptotic cells were excluded from analysis based on positive SYTOX green staining. % of total cells positive for αSMA were counted in each well and normalized to the average of 11 wells treated with TGF-β1 on the same plate using Dotmatics' Studies Software.

[5] = DYRK1A kinase, method text calls the value IC50

SMILES	EC50 [1] [nM]	EC50 (IL-6) [nM]	EC50 (GSK3β kinase) [nM]	EC50 [2] [nM]	EC50 [3] [nM]	EC50 (DYRK1A kinase) [nM]	EC50 (DYRK1A kinase; [5]) [nM]	EC50 [4] [nM]	inhibition at 10 µM (IL-6) [%]	inhibition at 10 µM [2] [%]	inhibition at 10 µM [4] [%]	inhibition at 10 µM ([3]; SW480, read-out: percent inhibition at 10 μM) [%]
[2H]c1c(NC(=O)C2CCNCC2)ncc2ccc(-c3cnn(C)c3)cc12 [Compound 5, N-(6-(1-Methyl-1H-pyrazol-4-yl)isoquinolin-3-yl-4-d)piperidine-4-carboxamide]	511	1050	115	738	917	3	–	113	–	–	–	–
Cn1cc(-c2cc(F)c3cnc(NC(=O)[C@H]4CC[C@H](N(C)C)CC4)cc3c2)nn1 [Compound 10, trans-4-(Dimethylamino)-N-(8-fluoro-6-(1-methyl-1H-1,2,3-triazol-4-yl)isoquinolin-3-yl)cyclohexane-1-carboxamide]	119	9220	18	719	923	–	4	208	–	–	–	–
Cn1cc(-c2ccc3cnc(NC(=O)CN4CCOCC4)cc3c2)nn1 [Compound 11, N-(6-(1-Methyl-1H-1,2,3-triazol-4-yl)isoquinolin-3-yl)-2-morpholinoacetamide]	190	> 10000	10	> 10000	2810	–	10	> 10000	38.4	46.3	3.8	–
Cc1nc(-c2ccc3cnc(NC(=O)[C@H]4CC[C@H](N5CCN(C)CC5)CC4)cc3c2)co1 [Compound 12, trans-N-(6-(2-Methyloxazol-4-yl)isoquinolin-3-yl)-4-(4-methylpiperazin-1-yl)cyclohexane-1-carboxamide]	436	1120	189	713	943	–	16	102	–	–	–	–
Cc1ncc(-c2ccc3cnc(NC(=O)N4CCOCC4)cc3c2)n1C [Compound 13, N-(6-(1,2-Dimethyl-1H-imidazol-5-yl)isoquinolin-3-yl)morpholine-4-carboxamide]	4700	> 10000	1250	3510	3700	–	13	> 10000	17.6	–	38.2	–
Cn1cnnc1-c1ccc2cnc(NC(=O)CN3CCOCC3)cc2c1 [Compound 14, N-(6-(4-Methyl-4H-1,2,4-triazol-3-yl)isoquinolin-3-yl)-2-morpholinoacetamide]	382	> 10000	48	5550	5350	–	33	1380	12.5	–	–	–
Cc1nnc(-c2ccc3cnc(NC(=O)CN4CCOCC4)cc3c2)n1C [Compound 15, N-(6-(4,5-Dimethyl-4H-1,2,4-triazol-3-yl)isoquinolin-3-yl)-2-morpholinoacetamide]	981	> 10000	59	> 10000	> 10000	–	61	896	15.8	38	–	40.1

The next lines start with results.

EC50 [1] [nM]	EC50 (IL-6) [nM]	EC50 (GSK3β kinase) [nM]	EC50 [2] [nM]	EC50 [3] [nM]	EC50 (DYRK1A kinase) [nM]	EC50 (DYRK1A kinase; [5]) [nM]	SMILES	EC50 [4] [nM]	inhibition at 10 µM (IL-6) [%]	inhibition at 10 µM [2] [%]	inhibition at 10 µM [4] [%]	inhibition at 10 µM ([3]; SW480, read-out: percent inhibition at 10 μM) [%]
286	1040	122	808	1460	–	5	CN[C@H]1CC[C@H](C(=O)Nc2cc3cc(-c4cnc(C)o4)ccc3cn2)CC1 [Compound 16, trans-4-(Methylamino)-N-(6-(2-methyloxazol-5-yl)isoquinolin-3-yl) cyclohexane-1-carboxamide]	172	–	–	–	–
743	3440	188	6910	4100	–	18	Cc1ncc(-c2cc(F)c3cnc(NC(=O)[C@H]4CC[C@H](N(C)C)CC4)cc3c2)o1 [Compound 17, trans-4-(Dimethylamino)-N-(8-fluoro-6-(2-methyloxazol-5-yl)isoquinolin-3-yl)cyclohexane-1-carboxamide]	1430	–	–	–	–
186	1250	68	587	671	–	3	Cc1ncc(-c2cc3cc(NC(=O)[C@H]4CC[C@H](N(C)C)CC4)ncc3cc2F)o1 [Compound 18, trans-4-(Dimethylamino)-N-(7-fluoro-6-(2-methyloxazol-5-yl)isoquinolin-3-yl)cyclohexane-1-carboxamide]	149	–	–	–	–
